From patent EP3325012B1, “CINEOLE-CONTAINING COMPOSITION FOR TREATING NOSE POLYPS” (Maria Clementine Martin Klosterfrau Vertriebsgesellschaft …, priority 2015, dated 2017)
Entries after “also recorded” stand apart in the source; their conditions may differ.

Key:
Nasenpolypenzellen = experiment: Proliferation of nasal polyp cells (xCELLigence Real Time Cell Analyzer; figure legend says MTT test); assay type: cell-based, Mensch; conditions: 100 µM 1,8-Cineol, after 144 Stunden; two subjects I and II (Figur 2A)
Source text: Material und Methoden: Die Anmelderin hat Gewebeproben aus Nasenpolypen und unteren Nasenmuscheln von Patienten mit CRSwNP (chronischer Rhinosinusitis mit Nasenpolypen) und aus unteren Nasenmuscheln von Probanden ohne chronische Sinusitis (gesunde Schleimhaut) auf Basis von immunohistochemischen Methoden und Immunoblot-Verfahren untersucht. Die zelluläre Proliferation und Migration wurden unter Einsatz des xCELLigence Real Time Cell Analyzer untersucht.
Proben von Nasenpolypen wurden in PBS-Puffer gewaschen und in sterilem serumfreiem "High Glucose Dulbecco's Modified Eagle Medium" (PAA, Pasching, Österreich) mit einer Skalpellklinge vorsichtig in kleine Stücke zerkleinert, wobei das Medium 1 % L-Glutamin, 1 % Natriumpyruvat, 1 % nichtessentielle Aminosäuren, 2 % Amphotericin B, 2 % Streptomycin und 2 % Penicillin, ergänzt mit 10 % FCS, und 25 mM HEPES Puffer, enthielt (alle von PAA, Pasching, Österreich). […]
Die Zellproliferation wurde mittels eines quantitativen kolorimetrischen 3-(4,5-Dimethylthiazol 2-yl)-2,5-diphenyltetrazoliumbromid-basierten (MTT) Zelltests bestimmt. […]

Akt = experiment: Western blot of Akt and P-Akt in nasal polyp protein extracts; assay type: cell-based, Mensch; conditions: 100 µM; all analysed protein extracts of nasal polyps (Figur 5)
Description: Lysate von Geweben wurden durch Erhitzen über einen Zeitraum von 5 Minuten in einfachem SDS-Probenpuffer (Carl Roth GmbH, Karlsruhe, Deutschland) denaturiert. Die Proteinkonzentrationen wurden mittels des Bradford-Tests bestimmt und jeweils 30 µg Gesamtprotein wurden zur SDS-Polyacrylamid-Gel Elektrophorese eingesetzt (Mini-Protean TGX®, Any kD, BioRad, Hercules, CA, USA) und anschließend auf Nitrozellulosemembranen übertragen. Die Übertragung der Proteine wurde mittels Ponceau-Färbung kontrolliert.
Neben der Phosphorylierung an Serin-9/-21 wird die GSK-3-Aktivität auch auf dem Level seiner subzellulären Lokalisierung reguliert. GSK-3 kann zur Trennung von seinen Substraten in endolysosomale Vesikel verlagert werden, um die Kinase-Aktivität zu verringern. […] GSK-3 ist in die Regulation von zahlreichen biosynthetischen Signalwegen involviert und zahlreiche Kinasen sind in der Lage, die GSK-3-Aktivität durch Phosphorylierung an dessen aktivierenden oder hemmenden Phosphorylierungsstellen zu regulieren. Die Akt-Kinase (auch bekannt als PKB) wurde als Onkogen mit Serin/Threonin-Kinase-Aktivität identifiziert und es wurde gezeigt, dass diese in vivo einen negativen Regulator der GSK3-beta Aktivität darstellt. Akt kann durch Phosphorylierung an Serin-473 durch PDK1 aktiviert werden, wobei davon ausgegangen wird, dass PHLPP als Inhibitor von dessen Phosphorylierung fungiert. […]

HNSCC-Zelllinien = experiment: MTT assay, vitality and proliferation of HNSCC cell lines; assay type: cell-based; conditions: 1 mM bis 10 mM, 250 Stunden, two cell lines
Description: Es wurden weiterführende Untersuchungen durchgeführt zur Analyse des Einflusses von Cineol auf die Vitalität und Proliferation verschiedener permanenter Zelllinien. Hierzu wurden einerseits die zwei HNSCC-Zelllinien und des Weiteren eine Fibroblastenzelllinie verwendet. Diese wurden über einen Zeitraum von 250 Stunden mit verschiedenen Cineol-Konzentrationen kultiviert (1 mM bis 10 mM) und die Vitalität der Zellen wurde jeweils mittels eines MTT-Assays untersucht.

[1] = system: Transkriptionsfaktors NF-kB; experiment: NF-kB transcription factor activity in polyp material; assay type: cell-based, Mensch; conditions: in Polyposis nasi et sinuum; TNF-alpha as positive control
Source text: Da auch für Polyposis nasi et sinuum postuliert wird, dass Entzündungsparameter einen entscheidenden Einfluss auf die Progression dieser Erkrankung haben, untersuchte die Anmelderin den Einfluss von Cineol auf die Aktivität des Transkriptionsfaktors Nuclear Factor kappa B (NF-kB) und auf die Aktivität eines breiten Spektrums verschiedener Phosphokinasen, um so die molekularen Angriffspunkte von Cineol in verschiedenen Biosynthesewegen der Zelle hinsichtlich des Polyposis nasi et sinuum-"Mikromilieus" zu identifizieren.
Bei den Messergebnissen wurde TNF-alpha (tumor necrosis factor-alpha) als etablierter Stimulus der NF-kB Aktivität und somit als interne Positivkontrolle verwendet.

[2] = system: proinflamatorischer Zytokine; conditions: inhalation; cited from earlier work

Structure (SMILES): CC12CCC(CC1)C(C)(C)O2 [1,8-Cineol, 1,3,3-Trimethyl-2-oxabicyclo[2.2.2]octan]
- Proliferation von Nasenpolypenzellen (Nasenpolypenzellen): stark verringerte Proliferation; also recorded: stark abnehmende Proliferation
- Phosphorylierungslevel von Akt an Serin-473 (Akt): nicht wesentlich beeinflusst
- Progression und Vitalität von HNSCC (HNSCC-Zelllinien): inhibierender Einfluss
- Aktivität des Transkriptionsfaktors NF-kB [1]: keinen inhibierenden Einfluss hierauf hat, sondern vielmehr leicht aktivierend
- proinflamatorische Zytokine [2]: deutlichen Reduktion
